Results on 25 compounds are retold here after patent US5550138A, “Condensed thiadiazole derivative, method of its production, and use thereof” (Takeda Chemical Industries, Ltd., priority 1992, dated 1996).

For one data set, the system named is Cathepsin B. In words: Determination of cathepsin B inhibitory activity. Format: biochemical. Conditions: substrate Z-Phe-Arg-NH-Mec; pH 5.5; 37° C., 20 minutes. Here is the method: Determination of cathepsin B inhibitory activity
Cathepsin B (produced by Sigma) was diluted with 100 mM sodium acetate buffer (pH 5.5) to a concentration of 30 μg/ml. To 1 μl of this enzyme dilution, 46 μl of diluent, 2 μl of 0.1M DTT and 25 μl of activator/buffer (340 mM sodium acetate, 60 mM acetic acid, 4 mM EDTA disodium salt, pH 5.5) were added. To this mixture, a 1 μl sample, diluted to 10^-3 M with dimethylsulfoxide (DMSO), and 25 μl of 20 μM Z-Phe-Arg-NH-Mec (enzyme substrate solution) were added. After the mixture was incubated at 37° C. for 20 minutes, 100 μl of a stop solution (100 mM sodium monochloroacetate, 30 mM sodium acetate, pH 4.3) was added. The reaction was carried out on a 96-well fluoropiate (produced by Labo-Systems).
After the reaction was stopped, the absorbance of free aminomethylcoumarin was determined by excitation at 365 nm and emission at 450 nm, using Fluorescence Concentration Analyzer (produced by Baxter). One μl of sample-free DMSO was added for control, and the absorbance from reaction of this control was defined as 100% activity. For samples of under 10% residual activity, further dilutions were assayed for residual activity as described above to obtain the IC50 value.

In the next data set the test system is bone resorption. Kind of data set: Inhibition of bone resorption (45Ca release from fetal rat forearm bones). Format: cell-based, rat (Sprague-Dawley). Conditions: 48 h, 10 μg/ml compound, two days of culture, read-out: Inhibition of Bone Resorption [45Ca released (percent ratio to control)]. Here is the method: Inhibition of bone resorption
The inhibitory effect of compound on bone resorption was measured by the method of Rais 3 [Journal of Clinical Investigation, 44, 103-116 (1965)]. Specifically, one Sprague-Dawley rat, at 19 days of gestation, was given 50 μCi of ^45 Ca (calcium isotope, in CaCl2 solution) by subcutaneous injection. On the following day, fetal rats were aseptically taken out, both forearm bones (radius and ulna) were cut out from the body of each fetus, and connective tissue and cartilages were removed to maximum possible extent, to yield prepare bone culture samples. Each bone fragment was incubated at 37° C. for 24 hours in 0.6 ml of BGJb medium (Fitton-Jackson modification, produced by GIBCO Laboratories, United States) containing 2 mg/ml bovine serum albumin, after which it was cultured in the same medium as above but containing a 10 μg/ml compound for two more days. ^45 Ca radioactivity in the medium and ^45 Ca radioactivity in the bone were then measured, and the percent ratio of ^45 Ca released from the bone to the medium was calculated using the following equation: [formula]
For control, bone fractions from fetuses of the same litter were cultured for two days in the absence of the test compound. The mean ± standard deviation for the values from five bone fragments in each group were calculated, and their percent ratios to the control were calculated.

In a further data set the target is endothelin receptor. Kind of data set: Inhibition of endothelin-1 binding to endothelin receptor (125I-endothelin binding test, rabbit ventricular microsomal fraction). Conditions: 125I-endothelin-1 6×10^-11 M, 37° C., 90 minutes. The protocol:
Inhibition of endothelin-1 binding to endothelin receptor
(a) Preparation of rabbit ventricular microsomal fraction
Rabbit ventricular microsomal fraction was prepared by the method described in Methods in Enzymology, 109, 513 with a slight modification. The cardiac ventricular muscle excised from a 2 to 2.5 kg rabbit was minced in solution A (20 mM NaHCO3, 0.1 mM phenylmethylsulfonyl fluoride (PMSF)) and then homogenized using a Polytron PT-20, and centrifuged at 1500×g for 15 minutes. The supernatant was centrifuged at 45000×g for 15 minutes. The resulting sediment was suspended in solution B (50 mM Tris-HCl pH 7.4, 0.1 mM PMSF) and then re-centrifuged at 45000×g for 15 minutes. The sediment was again suspended in solution B and then centrifuged at 45000×g for 15 minutes. The sediment was re-suspended in solution B, and the suspension was frozen with liquid nitrogen and stored at -80° C. This series of operations was performed at 4° C. Protein contents was determined by Lowry's method.
(b) ^125 I-endothelin binding test
To 250 μl of a reaction solution (50 mM Tris-HCl, pH 7.4, 0.2% BSA (bovine serum albumin)), supplemented with 6×10^-11 M ^125 I-endothelin-1 (Amersham Japan) 50 μl of the ventricular microsomal fraction (20 μg) and a sample were added, followed by incubation at 37° C. for 90 minutes. The reaction mixture was then filtered through a GF/B glass filter (Millipore Japan), and the filter was washed with a 40-fold (12 ml) of the reaction solution. The radioactivity of the ^125 I-endothelin on the glass filter was determined using a gamma-ray counter. Nonspecific binding was defined as the amount of ^125 I-endothelin in the presence of 4×10^-7 M unlabelled endothelin-1 and was less than 8% of total binding. The specific binding was calculated as total binding minus nonspecific binding. Non-specific binding accounted for not higher than 8% of the total binding. The inhibitory rate of the compound is expressed as the concentration (IC50 M) required to cause a 50% reduction in the specific binding.

The subject of the next data set is mice. Kind of data set: Toxicity in mice (deaths). Format: in vivo. The following applies: 300 mg/kg dose. The protocol:
Although the daily dose varies depending on the condition and weight of the patient, kind of the compound, route of administration and other factors, it is administered parenterally, specifically subcutaneously, intravenously, intramuscularly or rectally at about 0.05 to 100 mg/kg/day, preferably 0.5 to 50 mg/kg/day as an endothelin receptor antagonist, about 0.1 to 100 mg/kg/day, preferably 1 to 50 mg/kg/day as a cathepsin B inhibitor and about 1 to 200 mg/kg/day, preferably 5 to 100 mg/kg/day as a bone resorption suppressor, respectively. For use as an oral agent, it is desirable to administer it at about 0.1 to 500 mg/kg/day, preferably 0.5 to 200 mg/kg/day as an endothelin receptor antagonist, about 1 to 500 mg/kg/day, preferably 10 to 300 mg/kg/day as a cathepsin B inhibitor and about 5 to 1000 mg/kg/day, preferably 10 to 300 mg/kg/day as a bone resorption suppressor, respectively.

Another data set relates to swine coronary artery. Kind of data set: Inhibitory action on endothelin-1-induced constriction in swine coronary artery. Format: cell-based. Conditions: Sus scrofa, relaxation of maximum constriction induced by endothelin-1 (3×10^-9 M); for inhibition at 10 µM: compound 1 × 10^-5 M; for inhibition at 30 µM: compound 3 × 10^-5 M; for inhibition at 100 µM: compound 1 × 10^-4 M. Here is the method: Inhibitory action on endothelin-1-induced constriction in swine coronary artery
After fat tissue removal, the swine left coronary arterial anterior descending branch (LAD) was isolated and vascular rings were prepared. These arterial rings kept at 37° C., were suspended in a 20 ml organ chamber filled with Krebs solution being aerated with 95% O2 /5% CO2 gas. Two grams of the tension was applied. After equilibration for 1 hr, 60 mMKCl was applied to condition the coronary rings. The test compound was tested for inhibition of the constriction induced by endothelin-1 (3×10^-9 M) by adding the test compound when the maximum of endothelin-1 induced constriction was reached. Activity is expressed as percent relaxation of the maximum constriction induced by endothelin-1. The developed tension of rings was reached isometrically.

pIC50: −log10 of the molar value.

A word on the pIC50: it is the IC50 on a negative log10 scale, so that one unit is a factor of ten. A lower pIC50 goes with a high IC50. The term inhibition denotes the relative decrease from the control value, in per cent.

In turn, `Cc1sc2nc(=NS(=O)(=O)c3cccnc3)sn2c1-c1ccc(C2CCCCC2)cc1` [Example 108] gave a pIC50 in the data set with Cathepsin B of 5.96. In the data set with bone resorption, the activity at 10 µg/mL came to 85%.
For the compound `Cc1sc2nc(=NS(=O)(=O)Cc3ccccc3)sn2c1-c1ccc(C2CCCCC2)cc1` [Example 83], the pIC50 at endothelin receptor is 5.22. Moreover, the deaths result in the data set with mice was “no deaths occurred”.
For the compound `CCNC(=O)Cc1sc2nc(=NS(=O)(=O)c3ccc(C)cc3)sn2c1-c1ccc2c(c1)CCCC2` [Example 31], the pIC50 in the data set with Cathepsin B is 5.54.
For the compound `Cc1ccccc1S(=O)(=O)N=c1nc2sc(C)c(-c3ccc(C4CCCCC4)cc3)n2s1` [Example 73], at endothelin receptor, the pIC50 is 5.14.
In the data set on Cathepsin B, `Cc1ccc(NC(=O)Cc2sc3nc(=NS(=O)(=O)c4ccc(C)cc4)sn3c2-c2ccc3c(c2)CCCC3)cc1` [Example 34] showed a pIC50 of 5.03. Also, the activity at 10 µg/mL with bone resorption worked out at 75%.
`CCc1sc2nc(=NS(=O)(=O)c3ccc(F)cc3)sn2c1-c1ccc(C2CCCCC2)cc1` [Example 114] had a pIC50 on endothelin receptor of 5.42. Besides, in the data set on swine coronary artery, the inhibition at 10 µM turned out to be 44% and at 30 µM the inhibition was 75%.
For `Cc1ccc(S(=O)(=O)N=c2nc3sc(C(C)C)c(-c4ccc5c(c4)CCCC5)n3s2)cc1` [Example 24], the pIC50 at endothelin receptor is 5.60. In the data set on swine coronary artery, this compound showed an inhibition at 100 µM of 99% and an inhibition at 10 µM of 37%.
On to `CCc1sc2nc(=NS(=O)(=O)c3ccc(C)cc3)sn2c1-c1ccc2c(c1)CCCC2` [Example 20, 5-ethyl-2-(4-methylphenyl)sulfonylimino-6-(5,6,7,8-tetrahydro-2-naphthyl)-2H-thiazolo[3,2-b][1,2,4]thiadiazole], for which, at endothelin receptor, the pIC50 is 5.52. For the same compound, in the data set with swine coronary artery, the inhibition at 100 µM was 68% and at 10 µM the inhibition was 11%.
The compound `CCCCCCCCS(=O)(=O)N=c1nc2sc(C)c(-c3ccc(C4CCCCC4)cc3)n2s1` [Example 112] gave a negative logarithm of the IC50 (pIC50) on endothelin receptor of 5.28. Further, in the data set with swine coronary artery, at 10 µM the inhibition was 35% and the inhibition at 30 µM amounted to 83%.
Consider `CCc1sc2nc(=NS(=O)(=O)c3ccc(C)cc3)sn2c1CC(=O)NCC1CCCCC1` [Example 65], for which, in the data set with bone resorption, the activity at 10 µg/mL is 74%.
Turning to `CCCc1sc2nc(=NS(=O)(=O)c3ccc(C)cc3)sn2c1-c1ccc2c(c1)CCCC2` [Example 23], the pIC50 at endothelin receptor was 5.60.
With `Cc1ccc(S(=O)(=O)N=c2nc3cc4c(cn3s2)CCCC4)cc1` [Example 12], the pIC50 on endothelin receptor is 5.19. In the data set on swine coronary artery, this compound registered an inhibition at 100 µM of 62% and an inhibition at 10 µM of 14%.
In the case of `CCCCOc1ccc(-c2c(CC)sc3nc(=NS(=O)(=O)c4ccc(C)cc4)sn23)cc1` [Example 104], the pIC50 at endothelin receptor is 5.57.
Compound `Cc1ccc(S(=O)(=O)N=c2nc3sc(CC4CCCCC4)c(-c4ccc5c(c4)CCCC5)n3s2)cc1` [Example 25] showed a pIC50 with Cathepsin B of 5.92. Besides, in the data set on bone resorption, the activity at 10 µg/mL was found to be 72%.
In turn, `Cc1ccccc1S(=O)(=O)N=c1nc2cc3c(cn2s1)CCCC3` [Example 13] had a pIC50 at endothelin receptor of 5.23. Moreover, in the data set on swine coronary artery, the inhibition at 100 µM turned out to be 78% and at 10 µM the inhibition was 56%.
For `CCc1sc2nc(=NS(=O)(=O)c3ccc(C)cc3)sn2c1-c1cn(C)c2ccccc12` [Example 106], the pIC50 on endothelin receptor was 5.38.
For `CCOC(=O)CCCc1sc2nc(=NS(=O)(=O)c3ccc(C)cc3)sn2c1-c1ccc(C2CCCCC2)cc1` [Example 98], the pIC50 in the data set on Cathepsin B was 5.46. In addition, the activity at 10 µg/mL in the data set on bone resorption stood at 87%.
On endothelin receptor, `CCS(=O)(=O)N=c1nc2sc(C)c(-c3ccc(C4CCCCC4)cc3)n2s1` [Example 82] showed a pIC50 of 5.12.
Regarding `CCNC(=O)CCc1sc2nc(=NS(=O)(=O)c3ccc(C)cc3)sn2c1-c1ccc2c(c1)CCCC2` [Example 94], in the data set on bone resorption, the activity at 10 µg/mL came out at 76%.
Regarding `CCc1sc2nc(=NS(=O)(=O)CC(C)(C)CO)sn2c1-c1ccc(C2CCCCC2)cc1` [Example 115], the activity at 10 µg/mL in the data set with bone resorption turned out to be 85%.
On to `O=S(=O)(N=c1nc2cc3c(cn2s1)CCCC3)c1ccccc1` [Example 14], for which the negative logarithm of the IC50 (pIC50) at endothelin receptor was 5.06.
For `CCc1sc2nc(=NS(=O)(=O)c3ccc(C)cc3)sn2c1-c1ccc(C2CCCCC2)cc1` [Example 99], at endothelin receptor, the pIC50 is 5.68.
Regarding `CCOC(=O)CCC(NC(=O)CCc1sc2nc(=NS(=O)(=O)c3ccc(C)cc3)sn2c1-c1ccc2c(c1)CCCC2)C(=O)OCC` (stereo not shown) [Example 96], in the data set with Cathepsin B, the pIC50 is 5.72. For the same compound, the activity at 10 µg/mL with bone resorption is 81%.
Turning to `CCCS(=O)(=O)N=c1nc2sc(C)c(-c3ccc(C4CCCCC4)cc3)n2s1` [Example 111], the negative logarithm of the IC50 (pIC50) on endothelin receptor is 5.21. In the data set on swine coronary artery, the inhibition at 10 µM came to 40% and the inhibition at 30 µM turned out to be 78%. In the data set on bone resorption, the activity at 10 µg/mL came to 75%.
`CCOC(=O)Cc1sc2nc(=NS(=O)(=O)c3ccc(C)cc3)sn2c1-c1ccc2c(c1)CCCC2` [Example 26] had a pIC50 on endothelin receptor of 5.40.
